Test [1] is described as follows: Inhibitory effect of DABCO (0.2 M) on light induced nuclease activity was determined.
The nature of test [2]: Inhibitory effect of SOD (100 ng) on light induced nuclease activity was determined.
Test [3] is described as follows: Inhibitory effect of Mannitol (100 mM) on light induced nuclease activity was determined.
Test [4] can be described thus: Inhibitory effect of triphenylphosphine (100 uM) on light induced nuclease activity was determined.
The nature of test [5]: Inhibitory effect of 2-Propanol (100 uM) on light induced nuclease activity was determined.
Test [6] can be described thus: Inhibitory effect of DMSO (0.2 M) on light induced nuclease activity was determined.
Test [7] is described as follows: Inhibitory effect of cumene (100 uM) on light induced nuclease activity was determined.
Test [8] is described as follows: Inhibitory effect of D2O on light induced nuclease activity was determined. The note with it: concentration not given here.

SMILES strings stand for the structures.

The inhibition is the drop in the measured response relative to a control, in per cent. A lower inhibition goes with a weak effect.

In the case of `[N-]=[N+]=C1c2ccccc2C(=O)c2ccccc21`, the inhibition in test [1] came out at 30%; in test [2] it was 10%; in test [3], 5%; in test [4], 35%; in test [5] it was 25%; in test [6] it was 12%. For the same molecule, the inhibition in test [7] came to 39%; in test [8], 10%.
As to `[N-]=[N+]=c1c2ccccc2oc2ccccc12`, the inhibition in test [1] amounted to 38%; in test [2], 8%; in test [3], 3%; in test [4], 35%; in test [5], 30%; in test [6], 5%. For the same molecule, the inhibition in test [7] was 58%; in test [8], 8%.

The record behind these values is ChEMBL document CHEMBL1150995, “DNA cleavage by photoexcited diazoarenes” (Bioorg Med Chem Lett, 1997).
